# Legend:
# [1] = Substrate stability in buffer, UV detection; assay type: physicochemical; conditions: 5 min, 10 μM
# Experimental: (§1) The same two invention substrates and two prior art substrates were tested for stability by both UV detection and fluorescence detection under typical assay conditions.
# (§2) Tris maleate buffers (0.1 M) at pH ranging from 6.0 to 9.0 in intervals of 1.0 were used, and substrate was added to 10 μM final concentration. […] The fluorescence samples were read with excitation at 360 nm and emission at 460 nm (for pH 6.0), 465 nm (for pH 7.0), 485 nm (pH 8.0), and 510 nm (pH 9.0) for the methylumbelyl acetate, and with excitation at 330 nm and emission at 460 nm for the two test compounds, in all cases, the readings over 5-minute periods.
# [2] = system: esterase from a rat liver microsomal preparation; experiment: Specific activity of esterase against substrates; assay type: biochemical, Fisher 344 rats; conditions: Rat liver microsome, pH 8.0, 10 μM substrate, fluorescence 330/460 nm
# Experimental: (§3) The esterases were porcine esterase purchased from Sigma Chemical Company, St. Louis, Mo., USA, esterase from a rat liver microsomal preparation from 8-week-old Fisher 344 rats, and homogenates of Heliothis virescens from both pyrethroid-susceptible and -resistant strains of tobacco budworm. The substrate in each case was added to a tris-maleate buffer (pH 8.0, 0.1 m) to a final substrate concentration of 10 μM, followed by the addition of the enzyme preparation. The samples were then immediately read by fluorometer at 460 nm for one minute (excitation at 330 nm). The results are listed in Table VI, where “Compound I” denotes the Example 1 substrate, and “Compound II” denotes the Example 4 substrate.
# porcine esterase [3] = experiment: Sensitivity of substrate to enzyme strength; assay type: biochemical; conditions: pH 8.0, 10 μM substrate, 1 unit=1 μmol/min/mL
# Experimental: This example illustrates the sensitivity of the substrate to the enzyme, and compares a substrate in accordance with the present invention to two prior art substrates. […] The enzyme was porcine esterase.
# A tris-maleate buffer at pH 8.0 (0.1 M) was used. The procedure consisted of adding substrate to a test tube containing 3 mL of buffer to a final substrate concentration of 10 μM, then adding porcine esterase at strengths of 0.06, 0.09. 0.12, 0.18, 0.30, 0.60, 0.9 and 1.2 unit, in which 1 unit=1 μmol/min/mL. […] The enzyme sensitivities for each substrate and detection method were defined as the minimal amount of enzyme per mL required to produce a signal from the substrate that was at least three times greater than the background noise.
# [4] = Substrate stability in buffer, fluorescence detection; assay type: physicochemical; conditions: 5 min, 10 μM
# Experimental: as §1, §2
# [5] = system: homogenate of Heliothis virescens, pyrethroid-resistant strain; experiment: Specific activity of esterase against substrates; assay type: biochemical; conditions: H. virescens (resistant), pH 8.0, 10 μM substrate, fluorescence 330/460 nm
# Experimental: as §3
# porcine esterase [6] = experiment: Specific activity of esterase against substrates; assay type: biochemical; conditions: pH 8.0, 10 μM substrate, fluorescence 330/460 nm
# Experimental: as §3
# [7] = system: homogenate of Heliothis virescens, pyrethroid-susceptible strain; experiment: Specific activity of esterase against substrates; assay type: biochemical; conditions: H. virescens (susceptible), pH 8.0, 10 μM substrate, fluorescence 330/460 nm
# Experimental: as §3
# [8] = Change in optical properties, UV absorption of esters and hydrolysis products; assay type: physicochemical; conditions: for ε (molar absorptivity): in M-1 cm-1 (unit assumed)
# Description: The substrates representing the invention were (R/S)-acetic acid cyano-(6-methoxynaphthalen-2-yl)-methyl ester (the title compound of Synthesis Example 1 above) and (trans/cis)-3-(2,2-dichlorovinyl)-2,2-dimethylcyclopropanecarboxylic acid cyano-(6-methoxynaphthalen-2-yl)-methyl ester (the title compound of Synthesis Example 2 above).
# [9] = Change in optical properties, fluorescence of esters and hydrolysis products; assay type: physicochemical
# Description: The substrates representing the invention were (R/S)-acetic acid cyano-(6-methoxynaphthalen-2-yl)-methyl ester (the title compound of Synthesis Example 1 above) and (trans/cis)-3-(2,2-dichlorovinyl)-2,2-dimethylcyclopropanecarboxylic acid cyano-(6-methoxynaphthalen-2-yl)-methyl ester (the title compound of Synthesis Example 2 above). The substrates of the prior art were methylumbelyl acetate (for detection by fluorescence emission) and 2-naphthacetate (for detection by UV absorption) in assay solutions with different pH values. These prior art substrates were selected because both are widely used and both have aromatic systems similar to the two test compounds.
# Again using tris-maleate at pH levels of 6.5, 7.5, and 8.5, fluorescence studies were performed at concentrations of 10 μM, and fluorescence of the starting esters and the hydrolysis products (hydroxycoumarin in the case of methylumbelyl acetate and 6-methoxy-naphthaldehyde in the case of the Example 1 substrate) were determined by conventional instrumentation. The results are listed in Table III in which “MUA” denotes methylumbelyl acetate, “Compound I” denotes the Example 1 substrate, “Ex” denotes the optimal excitation wavelength in nm, “Emmax” denotes the maximal emission wavelength in nm, and “RFU” denotes the relative fluorescence units multiplied by 1,000.
# [10] = Rate of conversion of cyanohydrin to aldehyde as a function of pH; assay type: physicochemical; conditions: pH 8.0 or greater, tris-maleate 0.1 M, 25° C.
# Experimental: This example illustrates the rate of conversion of a cyanohydrin formed in the practice of this invention to its corresponding aldehyde. The cyanohydrin used in this example is hydroxy-(6-methoxynaphthalen-2-yl) acetonitrile, which is the cyanohydrin formed by the action of an esterase on the substrate of Example 1.
# The rate of cyanohydrin-to-aldehyde conversion was determined as a function of pH at constant ionic strength (0.1 M) and temperature (25° C.), using a series of tris-maleate buffers with different pH values ranging from 6.0 to 9.0 at intervals of 0.5. Conversion was initiated by the addition of 3 μL of 10 mM of cyanohydrin, and the formation of 6-methoxy-2-naphthaldehyde, measured in pmol cyanohydrin converted per second per mL, was detected by fluorescence excitation at 330 nm and emission at 460 nm over a time period of 20 minutes. […] The rate of aldehyde conversion increases rapidly at pH 8.0 or greater with maximum fluorescence achieved in less than 20 seconds.
structure (smiles),measurement,setting,value
"COc1ccc2cc(C(C#N)OC(C)=O)ccc2c1 (racemic) [Compound I, (R/S)-Acetic Acid Cyano-(6-methoxy-naphthalen-2-yl) Methyl Ester]",melting point,,84 to 85 °C
same,"Substrate stability, UV Absorption",[1]; pH 6,<0.01 mAbs/min
same,"Substrate stability, UV Absorption",[1]; pH 7,<0.01 mAbs/min
same,"Substrate stability, UV Absorption",[1]; pH 8,<0.01 mAbs/min
same,"Substrate stability, UV Absorption",[1]; pH 9,0.103 mAbs/min
same,Specific Activity,[2],"39,800 ± 600 pmol/min/mg protein"
same,Sensitivity (minimal amount of enzyme per mL giving a signal at least three times background noise),porcine esterase [3]; Fluorescence detection,0.00002
same,Sensitivity (minimal amount of enzyme per mL giving a signal at least three times background noise),porcine esterase [3]; UV detection,0.001
same,"Substrate stability, Fluorescence",[4]; pH 6,<1 pmol/min
same,"Substrate stability, Fluorescence",[4]; pH 7,8 pmol/min
same,"Substrate stability, Fluorescence",[4]; pH 8,59 pmol/min
same,"Substrate stability, Fluorescence",[4]; pH 9,138 pmol/min
same,Specific Activity,[5],"25,100 ± 425 pmol/min/mg protein"
same,Specific Activity,porcine esterase [6],"2,911,000 ± 1,780 pmol/min/mg protein"
same,Specific Activity,[7],"9,700 ± 220 pmol/min/mg protein"
same,OD (optical density),"[8]; tris-maleate pH 6.5, 10 μM",0.086
same,λmax,"[8]; tris-maleate pH 6.5, 10 μM",287 nm
same,ε (molar absorptivity),"[8]; tris-maleate pH 6.5, 10 μM","3,000"
same,OD (optical density),"[8]; tris-maleate pH 7.5, 10 μM",0.137
same,λmax,"[8]; tris-maleate pH 7.5, 10 μM",287 nm
same,ε (molar absorptivity),"[8]; tris-maleate pH 7.5, 10 μM","3,420"
same,OD (optical density),"[8]; tris-maleate pH 8.5, 10 μM",0.142
same,λmax,"[8]; tris-maleate pH 8.5, 10 μM",287 nm
same,ε (molar absorptivity),"[8]; tris-maleate pH 8.5, 10 μM","3,550"
same,emission peak,"[9]; over the three pH levels tested (6.5, 7.5, 8.5)",366 nm
same,Emmax (maximal emission wavelength),"[9]; tris-maleate pH 6.5, 10 μM",410 nm
same,Ex (optimal excitation wavelength),"[9]; tris-maleate pH 6.5, 10 μM",360 nm
same,"RFU (relative fluorescence units multiplied by 1,000)","[9]; tris-maleate pH 6.5, 10 μM",241 RFU
same,Emmax (maximal emission wavelength),"[9]; tris-maleate pH 7.5, 10 μM",450 nm
same,Ex (optimal excitation wavelength),"[9]; tris-maleate pH 7.5, 10 μM",360 nm
same,"RFU (relative fluorescence units multiplied by 1,000)","[9]; tris-maleate pH 7.5, 10 μM",581 RFU
same,Emmax (maximal emission wavelength),"[9]; tris-maleate pH 8.5, 10 μM",450 nm
same,Ex (optimal excitation wavelength),"[9]; tris-maleate pH 8.5, 10 μM",360 nm
same,"RFU (relative fluorescence units multiplied by 1,000)","[9]; tris-maleate pH 8.5, 10 μM","3,708 RFU"
"COc1ccc2cc(C(O)C#N)ccc2c1 (centres unmarked) [cyanohydrin, hydroxy-(6-methoxynaphthalen-2-yl) acetonitrile]",time to maximum fluorescence (cyanohydrin-to-aldehyde conversion),[10],less than 20 seconds

# Source: patent publication US6528675B1, “Cyanohydrin ethers and esters as high-sensitivity enzyme substrates” (The Regents of the University of California, priority 2001, dated 2003)
